Assay results reported in patent publication US20260097137A1, “FLUORESCENT PROBE COMPOUNDS FOR TUMOR TARGETING IMAGING, AND SYNTHESIS METHOD THEREFOR” (HEBEI MEDICAL UNIVERSITY, priority 2023, published 2026).

Assays:
[1] = target: T1, FRα (in KB cells) (Homo sapiens, UniProt P15328); assay: In vitro fluorescence microscopy assay, FR+ KB cells; format: cell-based; details: probe 1 μM, 30 minutes, excitation 775 nm
T1 construct: endogenous in cells; host or cells: KB cells
Procedure: (§1) To investigate the targeting capability of compound GT-NIR-1 toward folate receptor-expressing cells and its subcellular localization, FR^+ KB cells, FR^− A549 cells, FR^+ M2-type macrophages, and FR^− M1-type macrophages were seeded in confocal-specific culture dishes at a density of 3×10^5 cells per dish. The cells were cultured at 37° C. under 5% CO2 for 24 hours. Subsequently, the cells were incubated with GT-NIR-1 (1 μM) for 30 minutes. For competitive binding assays, KB cells and M2 macrophages were co-treated with a 100-fold excess of folic acid (100 μM) and GT-NIR-1 (1 μM) for 30 minutes. After incubation, all cells were washed three times with PBS (pH=7.4). Fluorescence was excited at 775 nm, and cellular fluorescence imaging was observed using confocal fluorescence microscopy (FIG. 4 and FIG. 5).

[2] = target: T2, FRβ (in M2 macrophages) (Homo sapiens, UniProt P14207); assay: In vitro fluorescence microscopy assay, FR+ M2-type macrophages; format: cell-based; details: probe 1 μM, 30 minutes, excitation 775 nm
T2 construct: endogenous in cells
T2 sequence (P14207 17-230, species assumed): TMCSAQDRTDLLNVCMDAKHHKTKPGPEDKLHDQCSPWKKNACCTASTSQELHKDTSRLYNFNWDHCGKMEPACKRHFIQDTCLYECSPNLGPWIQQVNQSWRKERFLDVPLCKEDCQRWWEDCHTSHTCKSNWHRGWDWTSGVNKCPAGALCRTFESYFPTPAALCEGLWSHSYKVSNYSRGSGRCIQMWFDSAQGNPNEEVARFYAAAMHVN
Procedure: as §1

[3] = test system: A549 cells; assay: In vitro fluorescence microscopy assay, FR- A549 cells; format: cell-based; details: probe 1 μM, 30 minutes
Procedure: as §1

[4] = test system: M1 macrophages; assay: In vitro fluorescence microscopy assay, FR- M1-type macrophages; format: cell-based; details: probe 1 μM, 30 minutes
Procedure: as §1

[5] = target: T3, FRα (Homo sapiens, UniProt P15328); assay: In vitro affinity assay of GT-NIR series probes by flow cytometry, KB cells; format: cell-based; details: 500 nM, 1 hour, order GT-NIR-5 > GT-NIR-4 > GT-NIR-1
T3 construct: endogenous in cells; host or cells: KB cells
T3 sequence (P15328 25-234): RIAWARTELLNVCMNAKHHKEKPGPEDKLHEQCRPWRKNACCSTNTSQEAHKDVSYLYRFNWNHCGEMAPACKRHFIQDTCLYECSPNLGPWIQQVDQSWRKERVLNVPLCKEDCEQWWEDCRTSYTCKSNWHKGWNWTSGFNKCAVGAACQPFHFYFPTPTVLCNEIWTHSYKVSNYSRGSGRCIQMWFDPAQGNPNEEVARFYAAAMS
Procedure: (§2) To compare the targeting affinity of different compounds in the GT-NIR series for folate receptors, FR^+ KB cells and M2 macrophages were seeded in 6-well plates at a density of 1×10^6 cells per well. After 24 hours of culture, the medium was replaced with folate-free fresh medium as a blank control. IR783 (500 nM) was added to exclude false-positive effects. Media containing GT-NIR series compounds (500 nM) were added to different wells and incubated for 1 hour. The cells were then digested with trypsin, washed three times with PBS (pH=7.4), and centrifuged (2000 rpm, 5 minutes) to remove unbound probes. The cells were resuspended in […] PBS, stored in light-protected BD Falcon tubes, and analyzed by flow cytometry. Statistical data were processed using FlowJo software (FIG. 6 and FIG. 7).

[6] = target: T4, FRβ (Homo sapiens, UniProt P14207); assay: In vitro affinity assay of GT-NIR series probes by flow cytometry, M2 macrophages; format: cell-based; details: 500 nM, 1 hour, order GT-NIR-5 > GT-NIR-4 > GT-NIR-1
T4 construct: endogenous in cells
T4 sequence (P14207 17-230, species assumed): as the sequence (P14207 17-230, species assumed) above
Procedure: as §2

[7] = target: folate receptors; details: background statement; cited from earlier work
[8] = test system: tumors with high folate receptor expression; details: e.g., ovarian cancer, non-small cell lung cancer; background statement; cited from earlier work
[9] = test system: FR-positive KB xenografts; assay: In vivo small animal imaging, FR+ KB cell xenografts; design: species or system mice; details: KB xenograft competition group, 100× excess folic acid
Procedure: (§3) Subcutaneous tumor models were established using FR^+ KB cell xenografts and FR A549 cell xenografts. The A549 xenograft model served as the negative control group, while a competition group was included to validate the in vivo targeting specificity of the probes toward tissues with high folate receptor expression. When tumor volumes reached 300-400 mm^3, the following treatments were administered via tail vein injection: • Blank control group: 100 μL saline; • Experimental groups: respective probes (10 nmol, dissolved in 100 μL saline); • Competition group: pre-injection of 100× excess folic acid ([…] in 100 μL saline) 15 minutes prior to probe administration (10 nmol in 100 μL saline).
(§4) Whole-body fluorescence imaging was performed using an IVIS imaging system with 750-800 nm excitation light at 2, 4, 8, 12, 24, and 48 hours post-injection. At 8 hours after systemic imaging, the mice were euthanized, and organs were collected for ex vivo tissue biodistribution analysis using the IVIS system.
The in vivo imaging capability of the GT-IR series compounds was evaluated in the FR^+ KB cell xenograft model following the same experimental procedure. Imaging was performed at 8 hours post-injection using the IVIS system with 750-800 nm excitation light. After euthanasia, organs were collected and subjected to ex vivo biodistribution analysis.

[10] = test system: FR-negative A549 xenograft; assay: In vivo small animal imaging, FR-negative A549 cell xenografts; design: species or system mice; details: A549 xenograft negative control group, 10 nmol tail vein
Procedure: as §3, §4

T1 sequence (P15328 25-234): as the sequence (P15328 25-234) above

CC1(C)C(/C=C/C2=C(Oc3ccc(C[C@H](NC(=O)CNC(=O)Cc4cc5c(=O)[nH]c(N)nc5[nH]4)C(=O)O)cc3)C(=C/C=C3/N(CCCCS(=O)(=O)O)c4ccccc4C3(C)C)/CCC2)=[N+](CCCCS(=O)(=O)[O-])c2ccccc21 [GT-NIR-1]
cell entry / fluorescence imaging by confocal microscopy [1]: successfully entered cells via targeting folate receptors | cell entry / fluorescence imaging by confocal microscopy [2]: successfully entered cells via targeting folate receptors | accumulation in folate receptor-negative cells [3]: no accumulation was observed | accumulation in folate receptor-negative cells [4]: no accumulation was observed

CC1(C)C(/C=C/C2=C(Oc3ccc(C[C@H](NC(=O)c4ccc(CCCCc5cc6c(=O)[nH]c(N)nc6[nH]5)s4)C(=O)O)cc3)C(=C/C=C3/N(CCCCS(=O)(=O)O)c4ccccc4C3(C)C)/CCC2)=[N+](CCCCS(=O)(=O)O)c2ccccc21 [GT-NIR-5]
binding affinity for FRα (rank order within GT-NIR series) [5]: highest binding affinity | binding affinity for FRβ (rank order within GT-NIR series) [6]: highest binding affinity

Nc1nc2ncc(CNc3ccc(C(=O)N[C@@H](CCC(=O)O)C(=O)O)cc3)nc2c(=O)[nH]1 [folic acid]
Kd [7]: ~1 nM

CC1(C)C(/C=C/C2=C(Oc3ccc(C[C@H](NC(=O)c4ccc(NCc5cnc6nc(N)[nH]c(=O)c6n5)cc4)C(=O)[O-])cc3)C(=C/C=C3\N(CCCCS(=O)(=O)[O-])c4ccc(S(=O)(=O)[O-])cc4C3(C)C)/CCC2)=[N+](CCCCS(=O)(=O)[O-])c2ccc(S(=O)(=O)[O-])cc21.[H+].[H+].[H+].[H+] [OTL38]
tumor illumination and dye accumulation [8]: illuminates tumor tissue at significant depths

CC1(C)C(/C=C/C2=C(Oc3ccc(C[C@H](NC(=O)c4ccc(CCCCc5cc6c(=O)[nH]c(N)nc6[nH]5)cc4)C(=O)O)cc3)C(=C/C=C3/N(CCCCS(=O)(=O)O)c4ccccc4C3(C)C)/CCC2)=[N+](CCCCS(=O)(=O)[O-])c2ccccc21 [GT-NIR-4]
clearance from the body [9]: rapidly cleared from the body | targeted tumor imaging, whole-body fluorescence [9]: no targeted tumor imaging was observed | clearance from the body [10]: rapidly cleared from the body | targeted tumor imaging, whole-body fluorescence [10]: no targeted tumor imaging was observed
